Assay results taken from publication PMC6328587 (Nature Communications, 2019).
“And” between values parts separate entries of the source, which are not always exact repeats. Identical values can stand only once.

Experiments:
p38α = target: T1, p38α (Homo sapiens, UniProt Q16539); test: PROTAC-induced p38α degradation, western blot in MDA-MB-231 cells; assay type: cell-based; conditions: 0.025-5.0 µM survey, ± one s.d., Supplementary Table 1; for DC50: biological duplicates
T1 construct: SJFα PROTAC (13-atom linker, amide attachment) selectively degrades p38α; endogenous in cells; host or cells: MDA-MB-231
T1 sequence (Q16539 whole entry): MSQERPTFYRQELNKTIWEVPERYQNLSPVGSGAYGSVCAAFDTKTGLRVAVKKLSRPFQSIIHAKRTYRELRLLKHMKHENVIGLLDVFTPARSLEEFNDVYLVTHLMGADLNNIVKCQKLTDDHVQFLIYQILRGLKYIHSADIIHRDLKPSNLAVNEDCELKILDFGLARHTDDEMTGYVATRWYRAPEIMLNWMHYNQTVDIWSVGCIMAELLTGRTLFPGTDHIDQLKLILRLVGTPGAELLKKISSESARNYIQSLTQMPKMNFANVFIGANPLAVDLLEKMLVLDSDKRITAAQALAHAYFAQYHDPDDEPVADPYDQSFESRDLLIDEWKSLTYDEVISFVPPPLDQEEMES
Method: (§1) MDA-MB-231 and HeLa cells were obtained from the American Type Culture Collection (ATCC), cultured in RPMI-1640 medium (1 × ) and Dulbecco’s modified Eagle’s medium (DMEM; 1 × ), respectively, containing 10% fetal bovine serum and 1% penicillin–streptomycin and grown in a humidified incubator at 37 °C and 5% CO2.
(§2) […] once with ice-cold PBS (1 × ), followed by lysis in buffer containing 25 mM Tris [pH 7.5], 0.25% sodium deoxycholate, 1% Triton X-100, supplemented with 1X protease inhibitor cocktail (Roche), and phosphatase inhibitors (10 mM NaF, 1 mM Na3VO4, and 20 mM β-glycerophosphate), unless otherwise noted. Lysates were spun at 14,000 × g for 10 min at 4 °C and supernatant was evaluated for protein content using a Pierce BCA Protein Assay (ThermoFisher Scientific). In all experiments, 25–50 μg of protein was loaded onto 10% SDS-PAGE gels or 4–20% Criterion TGX precast gradient gels (Bio-Rad), transferred to nitrocellulose membranes, and probed with the specified antibodies overnight at 4 °C in 1X TBS-Tween (Tris-buffered saline plus 0.02% Tween 20) containing 5% non-fat milk. Immunoblots were visualized using a Bio-Rad ChemiDoc imaging instrument and subsequently processed and quantified using the accompanying Bio-Rad ImageLab software. See Supplementary Figure 8 for uncropped scans of western blots shown in the main text figures.
(§3) Western blot data in Figs. 2, 6, and Supplementary Figures 2, 3 were quantified by using the band feature in Image Lab (Bio-Rad). The p38 values were normalized to the α-tubulin signal to account for differences in protein load, and PROTAC-treated normalized values were expressed as a % of the vehicle-treated (no PROTAC) value, which itself was defined as 100% p38 protein level. […] The sigmoidal fit established both the full extent of degradation, or Dmax at the bottom asymptote of the curve, as well as the DC50, which is the inflection point at which 50% of the total degradation observed was reached.

p38δ = target: T2, p38δ (Homo sapiens, UniProt O15264); test: PROTAC-induced p38δ degradation, western blot in MDA-MB-231 cells; assay type: cell-based; conditions: 0.025-5.0 µM survey, ± one s.d., Supplementary Table 1; for DC50: biological duplicates
T2 construct: endogenous in cells; host or cells: MDA-MB-231
T2 sequence (O15264 1-365): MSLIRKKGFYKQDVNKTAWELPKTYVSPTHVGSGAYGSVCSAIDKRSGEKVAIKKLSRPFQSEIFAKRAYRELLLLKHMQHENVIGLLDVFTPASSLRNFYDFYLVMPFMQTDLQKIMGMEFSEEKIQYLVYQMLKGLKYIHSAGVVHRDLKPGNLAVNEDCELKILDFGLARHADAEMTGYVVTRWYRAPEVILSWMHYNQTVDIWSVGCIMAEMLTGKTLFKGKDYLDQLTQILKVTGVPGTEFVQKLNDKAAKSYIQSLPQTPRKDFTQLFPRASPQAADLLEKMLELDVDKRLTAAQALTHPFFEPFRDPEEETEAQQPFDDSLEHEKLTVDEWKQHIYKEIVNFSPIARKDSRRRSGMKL
Method: as §1, §2, §3

SMILES: COc1cc2c(Oc3ccc(NC(=O)C4(C(=O)Nc5ccc(F)cc5)CC4)cc3F)ccnc2cc1OCCCOCCCOCCC(=O)N[C@H](C(=O)N1C[C@H](O)C[C@H]1C(=O)NCc1ccc(-c2scnc2C)cc1)C(C)(C)C
- DC50 (p38α): 230 ± 47 nM
- Dmax p38α (maximum percentage of degradation) (p38α): 90.1 ± 4.2%
- DC50 (p38δ): 456 ± 362 nM

SMILES: COc1cc2c(Oc3ccc(NC(=O)C4(C(=O)Nc5ccc(F)cc5)CC4)cc3F)ccnc2cc1OCCOCCOCCC(=O)N[C@H](C(=O)N1C[C@H](O)C[C@H]1C(=O)NCc1ccc(-c2scnc2C)cc1)C(C)(C)C [SJF-6693]
- Dmax p38α (maximum percentage of degradation) (p38α): 92.6 ± 2.8%
- DC50 (p38δ): < 100 nM and 51.4 nM
- Dmax p38δ (maximum percentage of degradation) (p38δ): 81.8 ± 1.9%

SMILES: COc1cc2c(Oc3ccc(NC(=O)C4(C(=O)Nc5ccc(F)cc5)CC4)cc3F)ccnc2cc1OCCCOCCCOCCCOc1cc(-c2scnc2C)ccc1CNC(=O)C1CC(O)CN1C(=O)C(C(C)C)N1Cc2ccccc2C1=O (centres unmarked) [SJF-6685]
- DC50 (p38α): 304 ± 691 nM
- DC50 (p38δ): 1140 ± 1950 nM
- Dmax p38δ (maximum percentage of degradation) (p38δ): 33.5 ± 27.2%

SMILES: COc1cc2c(Oc3ccc(NC(=O)C4(C(=O)Nc5ccc(F)cc5)CC4)cc3F)ccnc2cc1OCCCOCCOCCC(=O)N[C@H](C(=O)N1C[C@H](O)C[C@H]1C(=O)NCc1ccc(-c2scnc2C)cc1)C(C)(C)C [SJF-6690]
- Dmax p38α (maximum percentage of degradation) (p38α): 99.4 ± 2.0%
- DC50 (p38δ): < 100 nM and 91.7 nM
- Dmax p38δ (maximum percentage of degradation) (p38δ): 96.7 ± 3.7%

SMILES: COc1cc2c(Oc3ccc(NC(=O)C4(C(=O)Nc5ccc(F)cc5)CC4)cc3F)ccnc2cc1OCCCCOCCCCOc1cc(-c2scnc2C)ccc1CNC(=O)C1CC(O)CN1C(=O)C(C(C)C)N1Cc2ccccc2C1=O (centres unmarked) [SJF-6677]
- DC50 (p38α): 127 ± 163 nM
- Dmax p38α (maximum percentage of degradation) (p38α): < 50% and 25.3 ± 6.6%
- DC50 (p38δ): 106 ± 81.5 nM
- Dmax p38δ (maximum percentage of degradation) (p38δ): < 50% and 43.5 ± 7.2%

SMILES: COc1cc2c(Oc3ccc(NC(=O)C4(C(=O)Nc5ccc(F)cc5)CC4)cc3F)ccnc2cc1OCCCOCCOCCCOc1cc(-c2scnc2C)ccc1CNC(=O)C1CC(O)CN1C(=O)C(C(C)C)N1Cc2ccccc2C1=O (centres unmarked) [BES-4612]
- DC50 (p38α): 760 ± 1500 nM
- Dmax p38α (maximum percentage of degradation) (p38α): 16.8 ± 13.4%
- DC50 (p38δ): 1890 ± 2350 nM
- Dmax p38δ (maximum percentage of degradation) (p38δ): 78.7 ± 40.8%
